Earlier results, collected in patent US20110144198A1, “BREAST CANCER PROGNOSTICS” (ATLAS ANTIBODIES AB, priority 2008, published 2011).

Columns and labels:
ERα+/PR− tumors = conditions: follow-up period of 6 years
[1] = test system: ERα positive (ERα+) patients

Row | SMILES | recurrence rate compared to patients treated with tamoxifen (ERα+/PR− tumors) | fraction of ERα+ patients that do not respond to treatment [1]
1 | CC(C)(C#N)c1cc(Cn2cncn2)cc(C(C)(C)C#N)c1 [anastrozole] | halved | 
2 | CC/C(=C(\c1ccccc1)c1ccc(OCCN(C)C)cc1)c1ccccc1 [tamoxifen] |  | 30-40%
